These are literature values, as cited in PMC7400577 (Scientific Reports, 2020).

The IC50 is the concentration that inhibits the measured activity by half.

One series has as its target T1, hGAT2 (Homo sapiens, UniProt Q9NSD5).
T1 construct: expressed in transfected cells
T1 sequence (Q9NSD5 1-602): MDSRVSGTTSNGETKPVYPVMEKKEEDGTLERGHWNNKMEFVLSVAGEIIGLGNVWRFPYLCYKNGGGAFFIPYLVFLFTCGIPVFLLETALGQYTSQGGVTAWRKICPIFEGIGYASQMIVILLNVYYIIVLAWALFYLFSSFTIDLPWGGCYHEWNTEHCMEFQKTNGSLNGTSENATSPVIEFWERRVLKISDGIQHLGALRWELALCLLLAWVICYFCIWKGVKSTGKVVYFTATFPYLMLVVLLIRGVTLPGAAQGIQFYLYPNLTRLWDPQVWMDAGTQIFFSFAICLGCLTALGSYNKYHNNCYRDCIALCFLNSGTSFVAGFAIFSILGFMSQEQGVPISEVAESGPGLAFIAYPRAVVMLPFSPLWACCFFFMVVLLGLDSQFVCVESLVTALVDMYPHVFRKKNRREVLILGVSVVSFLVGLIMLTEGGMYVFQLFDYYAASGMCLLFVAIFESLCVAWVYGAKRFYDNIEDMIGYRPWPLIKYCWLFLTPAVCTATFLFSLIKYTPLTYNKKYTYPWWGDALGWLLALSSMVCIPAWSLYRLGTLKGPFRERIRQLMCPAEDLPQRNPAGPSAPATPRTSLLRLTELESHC
Conditions: [3H]GABA uptake, recombinant hGAT2; adapted from Al-Khawaja et al.; cited from earlier work.

The next series has as its target T2, hGAT3 (Homo sapiens, UniProt P48066).
T2 construct: expressed in transfected cells
T2 sequence (P48066 1-632): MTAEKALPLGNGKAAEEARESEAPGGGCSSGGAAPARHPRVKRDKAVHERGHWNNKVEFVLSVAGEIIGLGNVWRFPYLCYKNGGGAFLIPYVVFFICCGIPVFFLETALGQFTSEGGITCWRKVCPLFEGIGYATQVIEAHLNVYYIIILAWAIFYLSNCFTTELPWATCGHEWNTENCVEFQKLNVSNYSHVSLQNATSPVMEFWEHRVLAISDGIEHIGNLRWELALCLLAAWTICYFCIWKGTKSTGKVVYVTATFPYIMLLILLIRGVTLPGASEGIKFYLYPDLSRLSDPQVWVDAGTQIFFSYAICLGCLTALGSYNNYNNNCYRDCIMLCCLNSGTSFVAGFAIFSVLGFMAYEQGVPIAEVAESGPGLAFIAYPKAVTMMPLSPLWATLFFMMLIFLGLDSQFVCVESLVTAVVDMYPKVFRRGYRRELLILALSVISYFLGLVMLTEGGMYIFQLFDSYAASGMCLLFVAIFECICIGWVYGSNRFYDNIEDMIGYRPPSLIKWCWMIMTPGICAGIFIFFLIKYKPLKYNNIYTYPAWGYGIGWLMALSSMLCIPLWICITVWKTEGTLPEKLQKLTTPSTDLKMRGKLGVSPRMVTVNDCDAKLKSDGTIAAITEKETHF
The settings on record: [3H]GABA uptake, recombinant hGAT3; adapted from Al-Khawaja et al.; cited from earlier work.

Another series concerns the target T3, hBGT1 (Homo sapiens, UniProt P48065).
T3 construct: expressed in transfected cells
T3 sequence (P48065 1-614): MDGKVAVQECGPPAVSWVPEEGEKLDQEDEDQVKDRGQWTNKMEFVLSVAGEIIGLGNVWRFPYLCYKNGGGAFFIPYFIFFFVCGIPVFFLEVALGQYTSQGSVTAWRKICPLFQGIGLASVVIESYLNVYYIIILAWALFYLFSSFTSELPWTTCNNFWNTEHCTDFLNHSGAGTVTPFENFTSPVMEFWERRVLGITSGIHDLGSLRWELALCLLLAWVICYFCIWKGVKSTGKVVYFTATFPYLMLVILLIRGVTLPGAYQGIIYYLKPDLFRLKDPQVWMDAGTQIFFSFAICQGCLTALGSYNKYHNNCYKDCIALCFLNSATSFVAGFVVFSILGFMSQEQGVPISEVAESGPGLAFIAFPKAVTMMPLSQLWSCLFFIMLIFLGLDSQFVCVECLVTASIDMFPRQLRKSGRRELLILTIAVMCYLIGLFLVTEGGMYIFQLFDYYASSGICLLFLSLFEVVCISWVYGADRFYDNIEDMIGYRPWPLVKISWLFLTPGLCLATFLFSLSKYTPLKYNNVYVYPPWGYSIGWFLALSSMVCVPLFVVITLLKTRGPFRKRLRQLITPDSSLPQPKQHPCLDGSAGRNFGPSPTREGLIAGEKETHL
Conditions: previously demonstrated; cited from earlier work.

As for `NC1=NCC(C(=O)O)CN1` (centres unmarked) [ATPCA, 2-amino-1,4,5,6-tetrahydropyrimidine-5-carboxylic acid, reference compound], on hGAT2, the IC50 is 41 µM and the “pIC50 ± S.E.M. hGAT2” value is recorded as 4.39 ± 0.09. On hGAT3, the IC50 was 99 µM and the “pIC50 ± S.E.M. hGAT3” value is on record as 4.00 ± 0.03. Besides, at hBGT1, the “substrate character at hBGT1 in FMP assay” value is on record as “substrate for hBGT1”.
